From patent US11458225B2, “3D vascularized human ocular tissue for cell therapy and drug discovery” (THE UNITED STATES OF AMERICA, as represented by the …, priority 2016, dated 2022)
Entries after “also recorded” stand apart in the source; their conditions may differ.

How the values were obtained:
RPE-“choroid” tissues = experiment: Hypoxia disease model: DMOG treatment of bioprinted RPE-"choroid" tissue, confocal imaging; type: cell-based, human; conditions: two weeks of treatment
Experimental: FIGS. 18A-18I are digital images showing the effect of hypoxia on “choriocapillaris.” RPE-“choroid” tissues were treated with DMOG (100 μM) after 4 weeks from printing. DMOG inhibits prolyl-4-hydroxylase and induces hypoxia-inducible factor. DMOG was treated on only apical region of RPE or on both apical region of RPE and “choroid” sides. After two weeks of DMOG treatment, tissues were fixed in 4% PFA. Z-stack confocal images were separated into three sections as RPE (A-C), subRPE/scaffold (D-F), and “choroid” (G-I). RPE was recognized by Hoescht (nuclei). Choroid was stained with CD31. Scale bar=100 μm.
It was tested if hypoxic condition of RPE or RPE-“choroid” plays a role in “choroidal” neovascularization. Hypoxia has been reported as a crucial factor to induce wet AMD. A chemical compound, DMOG, was used to induce hypoxia-inducible factor in RPE or every cell type within the tissue.

[1] = tested on: 3D vascularized tissue containing GFP positive primary endothelial cells, pericytes, and fibroblasts; conditions: a week of VEGF treatment (85 ng/ml) vs 3 days then basal 1.7 ng/ml
Text: (A) 8 bit images of printed GFP endothelial cells (white) were quantified. Five line probes were placed in each gap between stripes of the printed geometry. Each line probe detects peaks (hollow circles) of GFP intensity above a threshold. Line 1 and 6, 2 and 5, 3 and 4 indicate edge, intermediate, and center of each gap, respectively. (B) Two experimental groups are compared. […] Angiogenesis was quantified as a number of GFP peaks in each line probe. The quantification of angiogenesis was performed between groups and time frames of G (n=5; number of printings). Error bars indicates standard error and mean. Two-way ANOVA and Bonferroni post-hoc pair comparison. † indicates statistical significance (p<0.05) between groups (left figure) and day 5-6 and day 7-8 (right figure). # and * indicates statistical significance (p<0.05) in day 3-4 vs. day 5-6 and day 3-4 vs. day 7-8, respectively.

COC(=O)CNC(=O)C(=O)OC [DMOG]
vascularization in sub-RPE region (CD31 stain) (RPE-“choroid” tissues; DMOG 100 μM from 4 weeks after printing, on apical region of RPE only or on both RPE and “choroid” sides): significantly induced vascularization in sub-RPE region; also recorded: induced vascularization in the subRPE region | changes of the RPE monolayer (RPE-“choroid” tissues; DMOG 100 μM, RPE recognized by Hoescht): did not show noticeable changes

VEGF
growth and viability of microvascular network [1]: significantly enhanced growth and viability of microvascular network
